Test results: ChEMBL document CHEMBL1201862, “PubChem BioAssay data set” (2004)
Values belong to the compound of their own block, whether it stands above or below them. Active and inactive are the calls of the source.

Columns and labels:
[1] = target: T1, COUP transcription factor 2 (Homo sapiens, UniProt P24468); assay: Luminescence-based cell-based high throughput dose response assay to identify inhibitors of COUP-TFII (NR2F2).; format: functional;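 further: HEK293 cells transiently cotransfected with COUP-TFII expression vector and reporter; luciferase reporter luminescence driven by COUP-TFII from the pX2-168 reporter plasmid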
T1 sequence (P24468 whole entry): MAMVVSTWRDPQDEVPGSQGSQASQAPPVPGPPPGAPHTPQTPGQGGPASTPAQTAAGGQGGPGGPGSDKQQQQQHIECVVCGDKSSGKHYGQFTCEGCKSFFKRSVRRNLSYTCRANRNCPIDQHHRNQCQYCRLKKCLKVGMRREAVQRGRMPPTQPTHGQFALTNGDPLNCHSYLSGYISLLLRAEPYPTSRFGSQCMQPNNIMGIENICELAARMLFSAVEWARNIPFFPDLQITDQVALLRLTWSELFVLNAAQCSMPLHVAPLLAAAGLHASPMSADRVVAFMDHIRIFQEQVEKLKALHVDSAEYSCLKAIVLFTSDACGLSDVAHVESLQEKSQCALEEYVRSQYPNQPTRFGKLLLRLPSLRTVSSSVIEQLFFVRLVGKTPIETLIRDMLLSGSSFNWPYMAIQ

[2] = tested on: Streptococcus sp. 'group A'; assay: growth inhibition of control SK(-) GAS strain, dose response, counter-screen for streptokinase expression inhibitor project, luminescence, kanamycin, BacTiterGlo, confirmation (AID 1900); format: functional, organism-based
CAAX prenyl protease 2 = CAAX prenyl protease 2 (Saccharomyces cerevisiae S288c, UniProt Q03530); format: biochemical
Sequence of CAAX prenyl protease 2 (Q03530 whole entry): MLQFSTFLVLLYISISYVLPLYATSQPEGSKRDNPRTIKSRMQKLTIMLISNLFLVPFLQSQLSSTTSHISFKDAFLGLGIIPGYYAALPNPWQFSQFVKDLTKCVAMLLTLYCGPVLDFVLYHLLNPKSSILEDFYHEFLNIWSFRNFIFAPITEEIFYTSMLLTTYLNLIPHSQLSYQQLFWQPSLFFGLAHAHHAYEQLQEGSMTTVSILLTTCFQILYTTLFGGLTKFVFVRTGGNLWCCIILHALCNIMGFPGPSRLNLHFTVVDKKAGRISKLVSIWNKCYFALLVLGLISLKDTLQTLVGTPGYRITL

INS1 = assay: beta cell apoptosis inhibitors, cytokine rescue, dose response, luminescence, retest (AID 449756); format: functional, cell-based; details: Rattus norvegicus;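 further: cell death triggered by IL-1 beta plus TNF-alpha plus IFN-gamma mixture; protective hits raise ATP signal compared with cytokine alone wells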
[3] = target: T2, Apoptotic protease-activating factor 1 (Homo sapiens, UniProt O14727); format: functional
T2 sequence (O14727 whole entry): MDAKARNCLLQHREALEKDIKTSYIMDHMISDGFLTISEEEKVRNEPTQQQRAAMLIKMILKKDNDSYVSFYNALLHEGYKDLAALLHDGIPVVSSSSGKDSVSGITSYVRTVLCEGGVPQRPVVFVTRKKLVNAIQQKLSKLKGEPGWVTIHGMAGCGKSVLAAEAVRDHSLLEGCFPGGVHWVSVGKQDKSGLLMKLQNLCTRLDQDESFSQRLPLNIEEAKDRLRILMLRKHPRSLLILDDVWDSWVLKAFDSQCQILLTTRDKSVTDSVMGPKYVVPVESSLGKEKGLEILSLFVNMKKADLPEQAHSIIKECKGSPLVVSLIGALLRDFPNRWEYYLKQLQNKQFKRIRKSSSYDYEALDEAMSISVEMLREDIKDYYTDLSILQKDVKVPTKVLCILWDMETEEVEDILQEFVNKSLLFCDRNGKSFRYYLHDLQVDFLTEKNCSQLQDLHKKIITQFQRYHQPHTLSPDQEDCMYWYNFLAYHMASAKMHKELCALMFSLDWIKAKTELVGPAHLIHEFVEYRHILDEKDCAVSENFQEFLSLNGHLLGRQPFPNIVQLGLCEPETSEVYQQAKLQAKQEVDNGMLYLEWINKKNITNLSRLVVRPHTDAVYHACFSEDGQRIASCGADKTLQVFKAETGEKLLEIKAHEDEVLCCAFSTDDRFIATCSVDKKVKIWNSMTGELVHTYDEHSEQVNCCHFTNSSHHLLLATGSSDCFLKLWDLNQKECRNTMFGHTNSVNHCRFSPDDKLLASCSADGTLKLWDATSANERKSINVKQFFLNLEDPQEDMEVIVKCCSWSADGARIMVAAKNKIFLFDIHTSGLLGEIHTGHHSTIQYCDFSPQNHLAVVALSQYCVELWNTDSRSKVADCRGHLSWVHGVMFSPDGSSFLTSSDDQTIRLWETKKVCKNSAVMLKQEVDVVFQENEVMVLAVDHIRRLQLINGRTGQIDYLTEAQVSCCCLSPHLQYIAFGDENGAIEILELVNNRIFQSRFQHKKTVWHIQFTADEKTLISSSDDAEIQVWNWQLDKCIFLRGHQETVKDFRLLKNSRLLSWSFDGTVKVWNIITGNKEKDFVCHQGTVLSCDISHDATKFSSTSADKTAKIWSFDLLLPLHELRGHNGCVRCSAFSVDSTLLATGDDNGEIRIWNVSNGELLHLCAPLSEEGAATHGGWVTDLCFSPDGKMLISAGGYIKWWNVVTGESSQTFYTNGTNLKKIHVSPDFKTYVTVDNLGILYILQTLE

HEK293 = assay: optical interference in Abeta FP readout, dose response, artefact control for IDE activator project, biochemical, fluorescence polarization (AID 588442); format: functional, cell-based; details: Homo sapiens
[4] = target: MAP kinase-activated protein kinase 5 (Homo sapiens, UniProt Q8IW41); format: functional;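 further: measured as one member of a kinome panel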
[5] = target: Macrophage-stimulating protein receptor (Homo sapiens, UniProt Q04912); assay: Navigating the Kinome. Panel member name: MST1R; format: functional
[6] = target: RAC-alpha serine/threonine-protein kinase (Homo sapiens, UniProt P31749); format: functional;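 further: AKT1 affinity measured as one member of a kinome-wide kinase profiling panel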
Sequence of RAC-alpha serine/threonine-protein kinase (P31749 whole entry): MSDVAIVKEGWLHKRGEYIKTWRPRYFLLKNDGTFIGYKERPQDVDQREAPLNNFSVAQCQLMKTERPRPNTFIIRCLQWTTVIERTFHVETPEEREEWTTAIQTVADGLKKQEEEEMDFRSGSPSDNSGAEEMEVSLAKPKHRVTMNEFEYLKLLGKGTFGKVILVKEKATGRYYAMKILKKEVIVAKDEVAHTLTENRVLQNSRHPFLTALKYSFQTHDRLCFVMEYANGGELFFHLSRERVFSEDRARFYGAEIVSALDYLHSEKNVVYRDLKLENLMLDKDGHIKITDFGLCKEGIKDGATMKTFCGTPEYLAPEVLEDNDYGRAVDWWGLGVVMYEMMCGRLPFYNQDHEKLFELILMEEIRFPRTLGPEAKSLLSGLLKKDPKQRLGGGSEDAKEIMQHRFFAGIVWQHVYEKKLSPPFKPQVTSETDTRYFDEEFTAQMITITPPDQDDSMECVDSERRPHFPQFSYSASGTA

[7] = target: Dual specificity protein kinase CLK4 (Homo sapiens, UniProt Q9HAZ1); format: functional
[8] = target: Tyrosine-protein kinase SYK (Homo sapiens, UniProt P43405); format: functional
[9] = target: Dual specificity protein kinase CLK2 (Homo sapiens, UniProt P49760); format: functional
Sequence of Dual specificity protein kinase CLK2 (P49760 whole entry): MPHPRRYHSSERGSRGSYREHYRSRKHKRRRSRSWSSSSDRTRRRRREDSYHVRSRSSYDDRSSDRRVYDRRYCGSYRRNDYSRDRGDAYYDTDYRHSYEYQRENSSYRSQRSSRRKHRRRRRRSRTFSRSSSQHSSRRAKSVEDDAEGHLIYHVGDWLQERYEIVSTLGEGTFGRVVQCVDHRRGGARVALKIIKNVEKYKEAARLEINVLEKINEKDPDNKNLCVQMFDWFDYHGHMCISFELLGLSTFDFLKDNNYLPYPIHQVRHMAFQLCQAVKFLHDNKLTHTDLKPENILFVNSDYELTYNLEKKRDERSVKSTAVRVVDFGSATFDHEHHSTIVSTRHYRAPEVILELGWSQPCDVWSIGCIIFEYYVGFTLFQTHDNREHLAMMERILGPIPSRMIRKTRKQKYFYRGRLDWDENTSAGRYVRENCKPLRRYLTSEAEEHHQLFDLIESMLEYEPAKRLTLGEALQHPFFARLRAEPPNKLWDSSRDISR

[10] = target: Serine/threonine-protein kinase Chk1 (Homo sapiens, UniProt O14757); format: functional;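 further: measured as one member of a kinome-wide kinase profiling panel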
Sequence of Serine/threonine-protein kinase Chk1 (O14757 whole entry): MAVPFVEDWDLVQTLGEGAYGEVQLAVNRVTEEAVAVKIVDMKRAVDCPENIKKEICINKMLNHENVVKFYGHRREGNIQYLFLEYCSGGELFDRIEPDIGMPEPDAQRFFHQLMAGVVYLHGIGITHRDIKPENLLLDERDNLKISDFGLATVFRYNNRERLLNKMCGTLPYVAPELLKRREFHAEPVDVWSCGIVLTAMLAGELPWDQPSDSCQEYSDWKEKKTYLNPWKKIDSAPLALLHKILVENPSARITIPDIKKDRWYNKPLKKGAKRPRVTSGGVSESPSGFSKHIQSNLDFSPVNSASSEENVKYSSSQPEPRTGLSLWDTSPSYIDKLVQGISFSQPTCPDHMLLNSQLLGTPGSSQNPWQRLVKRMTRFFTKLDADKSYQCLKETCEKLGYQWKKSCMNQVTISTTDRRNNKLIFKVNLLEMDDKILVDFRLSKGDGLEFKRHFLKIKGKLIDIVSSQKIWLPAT

[11] = target: Serine/threonine-protein kinase pim-3 (Homo sapiens, UniProt Q86V86); format: functional;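 further: value obtained as one member of a broad kinase panel profiling effort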
[12] = target: Protein kinase C zeta type (Homo sapiens, UniProt Q05513); format: functional;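 further: measured as one member of a broad kinase profiling panel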
Sequence of Protein kinase C zeta type (Q05513 whole entry): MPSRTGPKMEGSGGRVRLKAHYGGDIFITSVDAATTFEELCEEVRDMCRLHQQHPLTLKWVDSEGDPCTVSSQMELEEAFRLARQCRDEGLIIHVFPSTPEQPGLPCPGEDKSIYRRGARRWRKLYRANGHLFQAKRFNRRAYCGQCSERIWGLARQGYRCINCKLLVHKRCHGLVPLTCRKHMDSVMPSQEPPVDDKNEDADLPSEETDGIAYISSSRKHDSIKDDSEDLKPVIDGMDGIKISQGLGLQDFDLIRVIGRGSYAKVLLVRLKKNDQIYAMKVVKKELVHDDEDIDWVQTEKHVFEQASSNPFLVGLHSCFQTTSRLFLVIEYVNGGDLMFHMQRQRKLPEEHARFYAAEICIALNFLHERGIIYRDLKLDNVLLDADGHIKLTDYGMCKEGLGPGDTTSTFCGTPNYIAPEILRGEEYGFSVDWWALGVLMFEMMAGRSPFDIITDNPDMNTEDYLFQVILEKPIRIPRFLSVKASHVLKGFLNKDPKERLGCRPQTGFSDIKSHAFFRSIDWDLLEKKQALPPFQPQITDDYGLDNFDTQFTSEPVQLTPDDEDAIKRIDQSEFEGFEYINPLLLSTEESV

[13] = target: Fibroblast growth factor receptor 3 (Homo sapiens, UniProt P22607); format: functional
[14] = target: Tyrosine-protein kinase Lyn (Homo sapiens, UniProt P07948); format: functional;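 further: lyn as one member of a kinase panel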
Sequence of Tyrosine-protein kinase Lyn (P07948 whole entry): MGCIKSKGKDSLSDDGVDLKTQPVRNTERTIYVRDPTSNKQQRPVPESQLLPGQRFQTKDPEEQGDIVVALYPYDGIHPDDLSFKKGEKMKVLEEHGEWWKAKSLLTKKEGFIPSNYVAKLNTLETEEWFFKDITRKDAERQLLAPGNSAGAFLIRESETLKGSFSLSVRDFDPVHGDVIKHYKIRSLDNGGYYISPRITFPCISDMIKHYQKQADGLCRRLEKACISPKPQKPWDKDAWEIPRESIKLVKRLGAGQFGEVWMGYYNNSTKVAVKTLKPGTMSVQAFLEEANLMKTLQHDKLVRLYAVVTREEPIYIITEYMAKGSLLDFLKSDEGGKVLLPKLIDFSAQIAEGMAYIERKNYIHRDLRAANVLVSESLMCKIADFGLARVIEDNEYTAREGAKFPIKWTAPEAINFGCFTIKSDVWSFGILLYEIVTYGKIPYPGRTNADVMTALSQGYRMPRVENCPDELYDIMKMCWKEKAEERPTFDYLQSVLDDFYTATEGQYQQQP

Activated CDC42 kinase 1 = Activated CDC42 kinase 1 (Homo sapiens, UniProt Q07912); assay: Navigating the Kinome. Panel member name: ACK1; format: functional
[15] = target: Tyrosine-protein kinase receptor TYRO3 (Homo sapiens, UniProt Q06418); format: functional;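 further: TYRO3 value obtained as one member of a kinome-wide profiling panel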
[16] = target: Cyclin-dependent kinase 7 (Homo sapiens, UniProt P50613); format: functional;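 further: value comes from a kinome-wide kinase profiling panel in which CDK7 is one member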
Sequence of Cyclin-dependent kinase 7 (P50613 whole entry): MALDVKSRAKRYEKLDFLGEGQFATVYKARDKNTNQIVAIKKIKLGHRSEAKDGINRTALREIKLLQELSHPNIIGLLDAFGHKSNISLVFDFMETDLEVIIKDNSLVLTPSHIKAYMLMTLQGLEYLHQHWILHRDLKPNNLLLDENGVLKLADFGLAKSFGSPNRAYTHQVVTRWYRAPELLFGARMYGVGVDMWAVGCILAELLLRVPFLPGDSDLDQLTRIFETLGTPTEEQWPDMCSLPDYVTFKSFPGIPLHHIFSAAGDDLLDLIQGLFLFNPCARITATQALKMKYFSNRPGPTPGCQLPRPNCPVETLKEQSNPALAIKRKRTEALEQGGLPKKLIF

[17] = target: Hepatocyte growth factor receptor (Homo sapiens, UniProt P08581); format: functional;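 further: kinase panel profiling across the kinome, with MET as the panel member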
[18] = target: Serine/threonine-protein kinase 3 (Homo sapiens, UniProt Q13188); format: functional;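 further: measured as one member of a kinome-wide kinase panel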
Sequence of Serine/threonine-protein kinase 3 (Q13188 whole entry): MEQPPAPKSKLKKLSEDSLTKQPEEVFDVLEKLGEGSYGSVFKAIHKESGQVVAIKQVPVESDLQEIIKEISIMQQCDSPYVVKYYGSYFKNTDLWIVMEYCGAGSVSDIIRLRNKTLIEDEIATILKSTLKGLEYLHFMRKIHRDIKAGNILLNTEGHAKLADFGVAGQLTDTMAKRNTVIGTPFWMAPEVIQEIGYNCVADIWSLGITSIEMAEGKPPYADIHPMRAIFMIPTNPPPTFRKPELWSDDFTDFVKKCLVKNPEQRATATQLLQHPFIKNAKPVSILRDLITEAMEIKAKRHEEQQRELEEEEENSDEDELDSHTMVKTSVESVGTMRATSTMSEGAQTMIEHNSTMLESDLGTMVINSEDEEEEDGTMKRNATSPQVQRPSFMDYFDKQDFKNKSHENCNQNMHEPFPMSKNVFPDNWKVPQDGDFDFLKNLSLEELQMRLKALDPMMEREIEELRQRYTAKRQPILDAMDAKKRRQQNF

[19] = target: BDNF/NT-3 growth factors receptor (Homo sapiens, UniProt Q16620); format: functional;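 further: NTRK2 measured as one member of a broad kinome-wide kinase profiling panel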
Sequence of BDNF/NT-3 growth factors receptor (Q16620 whole entry): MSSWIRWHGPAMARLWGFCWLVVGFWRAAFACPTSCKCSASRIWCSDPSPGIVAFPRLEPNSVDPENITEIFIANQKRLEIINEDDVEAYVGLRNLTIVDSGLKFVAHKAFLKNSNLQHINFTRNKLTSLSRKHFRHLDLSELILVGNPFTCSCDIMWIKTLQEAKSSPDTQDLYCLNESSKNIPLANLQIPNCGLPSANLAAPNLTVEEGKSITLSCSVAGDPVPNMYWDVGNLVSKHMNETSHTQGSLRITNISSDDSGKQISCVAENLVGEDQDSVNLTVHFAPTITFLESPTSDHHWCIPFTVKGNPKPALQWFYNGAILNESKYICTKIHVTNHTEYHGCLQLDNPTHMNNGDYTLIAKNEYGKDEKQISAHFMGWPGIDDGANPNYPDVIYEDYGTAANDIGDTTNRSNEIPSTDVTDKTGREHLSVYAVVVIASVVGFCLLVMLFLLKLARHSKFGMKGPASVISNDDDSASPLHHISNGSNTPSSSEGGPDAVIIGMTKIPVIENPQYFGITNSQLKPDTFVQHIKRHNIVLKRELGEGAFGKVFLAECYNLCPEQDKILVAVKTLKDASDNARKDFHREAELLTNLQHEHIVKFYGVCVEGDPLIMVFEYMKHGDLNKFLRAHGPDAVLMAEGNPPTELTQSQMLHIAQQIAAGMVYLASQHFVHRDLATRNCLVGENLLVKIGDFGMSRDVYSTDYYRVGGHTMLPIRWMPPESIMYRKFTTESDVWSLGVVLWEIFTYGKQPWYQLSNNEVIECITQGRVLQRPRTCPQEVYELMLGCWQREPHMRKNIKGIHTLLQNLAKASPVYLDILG

SMILES: CCN1/C(=C\c2ccc3ccccc3[n+]2CC)Sc2cc(C)ccc21
IC50 [1]: 2.75 µM (active)

SMILES: CCCCCCCCCCOC(=O)C[n+]1c(COc2ccc(C)cc2)n(C)c2ccccc21
EC50 [2]: 6.2 µM (active)
AC50 (CAAX prenyl protease 2): 5.51 µM (active)
AC50 (INS1): 3.4 µM (active)
IC50 [3]: 10.8 µM (active)
EC50 (HEK293): > 55.9 µM (inactive)

Ki [4]: > 1.58 µM (inactive)
Ki [5]: 0.158 µM (active)
Ki [6]: 0.501 µM (active)
Ki [7]: > 5.01 µM (inactive)
Ki [8]: > 1.58 µM (inactive)
Ki [9]: > 2.51 µM (inactive)
Ki [10]: > 5.01 µM (inactive)
Ki [11]: 0.316 µM (active)
Ki [12]: 0.0631 µM (active)
Ki [13]: > 2 µM (inactive)
Ki [14]: > 1.58 µM (inactive)
Ki (Activated CDC42 kinase 1): > 3.98 µM (inactive)
Ki [15]: > 2.51 µM (inactive)
Ki [16]: > 3.98 µM (inactive)
Ki [17]: > 2.51 µM (inactive)
Ki [18]: 0.126 µM (active)
Ki [19]: > 3.98 µM (inactive)
SMILES: CN1CCN(c2nc(C3=C(c4c[nH]c5ccccc45)C(=O)NC3=O)c3ccccc3n2)CC1 [SOTRASTAURIN]
